Test system: living skin equivalents (LSE)
Experiment: TT dimer immunostaining (DNA damage/repair) in UVB-irradiated living skin equivalents
Format: cell-based
Details: pre-treated 0.01% (PBS) 18 hours; 24 hours after 175 mJ of UVB
Method: Excised portions (8 mm) are taken from living skin equivalents (LSE) and cultured over transwell membrane plates. These excised portions are pre-treated with rosavin or salidroside at 0.01% (PBS) for 18 hours. After the […], these excised portions are UVB-irradiated at 0 and 175 mJ/cm^2. One set of LSEs is immediately fixed in formalin to determine TT dimer formation (DNA damage). Following a 24-hour post-incubation, another set of skin equivalents is fixed in formalin. These samples are then prepared for TT dimer immunostaining. Sections are then evaluated using a microscope at 400× magnification. A section is selected from each sample and TT dimer containing cells are evaluated. DNA damage is measured by examining TT dimer stained cells immediately after UVB irradiation. DNA repair (TT dimer removal) in UVB-irradiated LSEs is determined by comparing the levels of TT dimer at 0 hr (immediately after UVB) with the levels of TT dimer at 24 hours (24 hours after UVB).

Compound `O[C@@H]1[C@@H](O)[C@@H](OC/C=C/c2ccccc2)O[C@H](CO[C@@H]2OC[C@H](O)[C@H](O)[C@H]2O)[C@H]1O` [rosavin, cinnamyl alcohol vicyanoside rosavin] has a TT dimer levels of 7%.
With `OC[C@H]1O[C@@H](OCCc2ccc(O)cc2)[C@H](O)[C@@H](O)[C@@H]1O` [salidroside, hydroxyphenylethanol-2-D-glucopyranoside] the TT dimer levels was 12%.
